From publication PMC12621043, “Un-LOK-ing a New Approach for Conformational Selective Targeting of STK10 (LOK)” (ACS Medicinal Chemistry Letters, 2025) come the findings set out here.

Common to all, as to experiment: DSF Tm panel
Common to all, as to type: binding
Holding throughout (conditions): 10 μM compound

The target in test [1] is T1, PIM3A (Homo sapiens, UniProt Q86V86).
T1 construct: purchased in-house DSF kinase panel (SGC-style construct names; the trailing letter is the construct ID)

The target in test [2] is T2, CHEK2A (Homo sapiens, UniProt O96017).
T2 construct: purchased in-house DSF kinase panel (SGC-style construct names; the trailing letter is the construct ID)
T2 sequence (O96017 210-531): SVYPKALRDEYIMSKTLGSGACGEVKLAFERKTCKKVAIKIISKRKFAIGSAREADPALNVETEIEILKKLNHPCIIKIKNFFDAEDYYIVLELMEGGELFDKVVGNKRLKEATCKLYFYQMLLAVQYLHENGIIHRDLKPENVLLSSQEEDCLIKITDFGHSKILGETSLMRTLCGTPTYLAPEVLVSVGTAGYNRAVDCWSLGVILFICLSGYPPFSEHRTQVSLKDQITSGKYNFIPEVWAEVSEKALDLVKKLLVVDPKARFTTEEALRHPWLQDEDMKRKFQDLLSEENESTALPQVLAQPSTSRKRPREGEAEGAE

Test [3] deals with T3, MAP2K1A (Homo sapiens, UniProt Q02750).
T3 construct: purchased in-house DSF kinase panel (SGC-style construct names; the trailing letter is the construct ID)
T3 sequence (Q02750 68-361): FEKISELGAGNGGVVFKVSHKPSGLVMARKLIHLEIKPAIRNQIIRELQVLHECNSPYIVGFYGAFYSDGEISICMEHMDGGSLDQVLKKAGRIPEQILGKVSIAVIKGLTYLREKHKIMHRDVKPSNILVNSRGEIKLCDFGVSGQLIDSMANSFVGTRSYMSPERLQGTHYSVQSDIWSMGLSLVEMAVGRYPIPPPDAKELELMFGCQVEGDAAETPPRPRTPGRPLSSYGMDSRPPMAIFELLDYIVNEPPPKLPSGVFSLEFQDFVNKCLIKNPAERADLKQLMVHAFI

Test [4] concerns the target T4, SRCA (Homo sapiens, UniProt P12931).
T4 construct: purchased in-house DSF kinase panel (SGC-style construct names; the trailing letter is the construct ID)

Test [5] deals with T5, CAMK1DA (Homo sapiens, UniProt Q8IU85).
T5 construct: purchased in-house DSF kinase panel (SGC-style construct names; the trailing letter is the construct ID)
T5 sequence (Q8IU85 whole entry): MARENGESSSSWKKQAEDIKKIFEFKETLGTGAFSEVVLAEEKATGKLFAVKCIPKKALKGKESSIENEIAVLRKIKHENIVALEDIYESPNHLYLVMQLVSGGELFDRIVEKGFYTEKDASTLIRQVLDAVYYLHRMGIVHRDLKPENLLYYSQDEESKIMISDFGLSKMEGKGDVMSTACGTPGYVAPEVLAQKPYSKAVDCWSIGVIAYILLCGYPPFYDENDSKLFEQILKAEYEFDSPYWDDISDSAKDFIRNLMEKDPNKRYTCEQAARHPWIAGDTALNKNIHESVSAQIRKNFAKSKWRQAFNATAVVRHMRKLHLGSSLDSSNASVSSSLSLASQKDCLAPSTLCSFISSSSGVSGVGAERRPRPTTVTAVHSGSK

Test [6] concerns the target T6, EPHA5A (Homo sapiens, UniProt P54756).
T6 construct: purchased in-house DSF kinase panel (SGC-style construct names; the trailing letter is the construct ID)
T6 sequence (P54756 653-939): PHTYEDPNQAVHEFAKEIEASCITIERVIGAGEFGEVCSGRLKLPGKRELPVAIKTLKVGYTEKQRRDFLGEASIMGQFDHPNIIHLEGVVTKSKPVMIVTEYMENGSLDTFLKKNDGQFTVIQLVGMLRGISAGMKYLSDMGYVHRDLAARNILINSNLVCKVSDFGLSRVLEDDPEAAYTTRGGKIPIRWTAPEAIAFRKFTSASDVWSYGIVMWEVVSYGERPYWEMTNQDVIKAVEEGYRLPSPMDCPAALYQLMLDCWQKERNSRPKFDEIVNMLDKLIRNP

The target of test [7] is T7, BRD4 (BRD4A) (Homo sapiens, UniProt O60885).
T7 construct: purchased in-house DSF kinase panel (SGC-style construct names; the trailing letter is the construct ID)

Test [8] has as its target T8, GAKA (Homo sapiens, UniProt O14976).
T8 construct: purchased in-house DSF kinase panel (SGC-style construct names; the trailing letter is the construct ID)
T8 sequence (O14976 14-351): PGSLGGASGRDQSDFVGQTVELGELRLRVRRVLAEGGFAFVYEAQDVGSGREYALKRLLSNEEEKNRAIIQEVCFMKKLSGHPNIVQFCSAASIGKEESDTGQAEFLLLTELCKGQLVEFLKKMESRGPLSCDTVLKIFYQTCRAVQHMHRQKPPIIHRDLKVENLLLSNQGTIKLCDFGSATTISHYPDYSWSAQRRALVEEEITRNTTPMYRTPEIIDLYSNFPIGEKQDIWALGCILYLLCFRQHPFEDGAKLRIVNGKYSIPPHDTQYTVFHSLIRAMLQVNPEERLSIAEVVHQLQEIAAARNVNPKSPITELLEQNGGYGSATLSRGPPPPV

Test [9] deals with T9, BMX (BMXA) (Homo sapiens, UniProt P51813).
T9 construct: purchased in-house DSF kinase panel (SGC-style construct names; the trailing letter is the construct ID)
T9 sequence (P51813 411-675): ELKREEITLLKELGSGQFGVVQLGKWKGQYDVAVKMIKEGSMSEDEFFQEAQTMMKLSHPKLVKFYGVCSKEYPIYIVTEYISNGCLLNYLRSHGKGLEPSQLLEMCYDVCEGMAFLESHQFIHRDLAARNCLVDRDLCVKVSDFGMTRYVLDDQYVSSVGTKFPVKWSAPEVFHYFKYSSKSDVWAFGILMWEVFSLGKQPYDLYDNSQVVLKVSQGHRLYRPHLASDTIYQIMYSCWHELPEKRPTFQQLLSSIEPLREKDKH

The target in test [10] is T10, CLK3A (Homo sapiens, UniProt P49761).
T10 construct: purchased in-house DSF kinase panel (SGC-style construct names; the trailing letter is the construct ID)
T10 sequence (P49761 127-484): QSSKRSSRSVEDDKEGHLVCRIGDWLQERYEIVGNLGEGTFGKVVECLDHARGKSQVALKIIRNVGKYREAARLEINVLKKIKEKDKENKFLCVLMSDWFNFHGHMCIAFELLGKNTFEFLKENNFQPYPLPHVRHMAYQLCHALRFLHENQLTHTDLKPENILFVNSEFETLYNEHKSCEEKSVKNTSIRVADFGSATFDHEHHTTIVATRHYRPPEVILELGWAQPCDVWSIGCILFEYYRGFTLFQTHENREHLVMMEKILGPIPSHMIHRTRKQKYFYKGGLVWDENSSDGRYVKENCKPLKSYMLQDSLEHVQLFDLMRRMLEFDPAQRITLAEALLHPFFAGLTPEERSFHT

For test [11], the target named is T11, FGFR1B (Homo sapiens, UniProt P11362).
T11 construct: purchased in-house DSF kinase panel (SGC-style construct names; the trailing letter is the construct ID)
T11 sequence (P11362 456-767): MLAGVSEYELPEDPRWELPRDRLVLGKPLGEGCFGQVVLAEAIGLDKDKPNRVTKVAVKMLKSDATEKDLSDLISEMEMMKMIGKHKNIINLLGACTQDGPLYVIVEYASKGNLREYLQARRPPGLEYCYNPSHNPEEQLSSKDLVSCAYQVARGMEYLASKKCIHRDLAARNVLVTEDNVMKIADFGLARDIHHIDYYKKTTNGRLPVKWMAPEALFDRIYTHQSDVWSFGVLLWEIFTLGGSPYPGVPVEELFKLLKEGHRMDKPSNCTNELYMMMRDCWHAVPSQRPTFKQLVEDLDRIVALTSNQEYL

Test [12] deals with T12, PAK1A (Homo sapiens, UniProt Q13153).
T12 construct: purchased in-house DSF kinase panel (SGC-style construct names; the trailing letter is the construct ID)
T12 sequence (Q13153 249-545): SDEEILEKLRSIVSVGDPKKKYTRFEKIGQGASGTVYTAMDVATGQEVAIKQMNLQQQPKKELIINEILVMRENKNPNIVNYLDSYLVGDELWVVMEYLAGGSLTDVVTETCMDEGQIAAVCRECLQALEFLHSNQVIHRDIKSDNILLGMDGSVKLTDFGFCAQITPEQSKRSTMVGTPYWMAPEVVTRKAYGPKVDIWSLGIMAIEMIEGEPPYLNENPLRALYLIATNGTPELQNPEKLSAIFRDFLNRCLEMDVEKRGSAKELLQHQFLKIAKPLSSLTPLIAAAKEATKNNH

The target of test [13] is T13, GSK3BB (Homo sapiens, UniProt P49841).
T13 construct: purchased in-house DSF kinase panel (SGC-style construct names; the trailing letter is the construct ID)
T13 sequence (P49841 35-386): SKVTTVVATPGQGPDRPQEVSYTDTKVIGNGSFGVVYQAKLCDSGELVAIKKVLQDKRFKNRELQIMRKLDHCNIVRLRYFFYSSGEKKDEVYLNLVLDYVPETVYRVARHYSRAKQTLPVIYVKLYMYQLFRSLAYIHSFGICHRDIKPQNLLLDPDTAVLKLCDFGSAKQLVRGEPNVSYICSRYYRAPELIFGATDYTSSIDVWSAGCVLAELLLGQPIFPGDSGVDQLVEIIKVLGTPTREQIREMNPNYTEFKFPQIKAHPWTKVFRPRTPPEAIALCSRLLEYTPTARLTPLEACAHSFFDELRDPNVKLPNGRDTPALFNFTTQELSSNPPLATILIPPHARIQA

In test [14] the target is T14, ULK1A (Homo sapiens, UniProt O75385).
T14 construct: purchased in-house DSF kinase panel (SGC-style construct names; the trailing letter is the construct ID)
T14 sequence (O75385 1-283): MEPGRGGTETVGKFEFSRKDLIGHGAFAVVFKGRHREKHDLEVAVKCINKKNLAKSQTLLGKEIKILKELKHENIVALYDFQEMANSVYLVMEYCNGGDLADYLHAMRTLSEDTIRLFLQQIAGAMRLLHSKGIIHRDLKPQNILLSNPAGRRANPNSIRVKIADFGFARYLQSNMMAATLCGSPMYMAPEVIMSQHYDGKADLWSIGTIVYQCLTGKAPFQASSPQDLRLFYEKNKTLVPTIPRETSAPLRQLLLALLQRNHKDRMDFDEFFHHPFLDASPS

The subject of test [15] is TAF1A.
The target of test [16] is T15, MAP2K4A (Homo sapiens, UniProt P45985).
T15 construct: purchased in-house DSF kinase panel (SGC-style construct names; the trailing letter is the construct ID)
T15 sequence (P45985 102-367): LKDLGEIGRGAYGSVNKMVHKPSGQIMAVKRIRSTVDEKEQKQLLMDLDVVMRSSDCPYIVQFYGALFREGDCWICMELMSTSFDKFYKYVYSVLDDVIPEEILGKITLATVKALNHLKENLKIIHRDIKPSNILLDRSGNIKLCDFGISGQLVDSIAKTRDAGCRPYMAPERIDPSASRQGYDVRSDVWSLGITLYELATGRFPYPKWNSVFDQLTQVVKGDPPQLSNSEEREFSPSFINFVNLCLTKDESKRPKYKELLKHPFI

The structures appear in SMILES notation.

T4 sequence (P12931 254-536): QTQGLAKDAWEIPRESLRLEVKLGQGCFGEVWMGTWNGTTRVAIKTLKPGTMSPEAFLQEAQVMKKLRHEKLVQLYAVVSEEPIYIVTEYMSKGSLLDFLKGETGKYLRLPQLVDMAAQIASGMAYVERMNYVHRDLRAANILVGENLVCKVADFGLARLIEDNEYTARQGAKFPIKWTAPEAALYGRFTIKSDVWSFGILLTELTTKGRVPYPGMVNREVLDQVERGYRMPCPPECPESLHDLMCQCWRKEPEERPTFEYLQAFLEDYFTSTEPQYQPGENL

`CN1CCN(C(=O)Nc2ccc3cc2OCCOCCNc2ccn4ncc-3c4n2)CC1` [compound 35]: the shift in melting temperature (ΔTm) at 10 µM was 1.6 °C in test [1]; 0.8 °C in test [2]; -0.2 °C in test [3]; 0.7 °C in test [4]; -1.2 °C in [5]; -0.5 °C in test [6]. For the same molecule, the ΔTm at 10 µM in [7] was -0.4 °C; in test [8], 3.8 °C; in [9], 0.3 °C; in [10], 0.7 °C; in [11], 0.7 °C; in [12], -0.1 °C. For the same molecule, the thermal shift (ΔTm) at 10 µM in test [13] came to 1.7 °C; in test [14], 0.2 °C; in test [16], 1.8 °C. Further, the “ΔTm TAF1A” value in test [15] is 0,1 °C.

For orientation: ΔTm means the shift of the melting midpoint relative to a reference.
